In series [1] the target is T1, CDK5/GST-p25 (Homo sapiens, UniProt Q00535).
T1 construct: The final construct, encoding for full-length human CDK5; made in house; host or cells: Sf21 insect cells (baculovirus co-infection)
The experiment in a line: Inhibition of CDK5/GST-p25 kinase activity (ELISA with time-resolved fluorescence readout). Format: biochemical. In a few lines:
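The substrate, GST-Rb(773-928), was immobilised on plates and phosphorylated for 20 min at 37 °C by 2 ng/ml CDK5/GST-p25 in HEPES pH 7.2 with 10 µM ATP and 10 mM MgCl2. Both proteins were human and co-expressed in insect cells. Ser-780 phosphorylation was read by europium time-resolved fluorescence and converted to IC50.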

Series [2] addresses T2, His6-GSK-3β (Homo sapiens, UniProt P49841).
T2 construct: made in house; host or cells: Sf21 insect cells (baculovirus)
The experiment in a line: Inhibition of His6-GSK-3β kinase activity (ELISA-based format, time-resolved fluorescence readout). Format: biochemical. The note with it: for IC50: read-out: GSK3β IC50. The gist of the method:
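Plate-bound recombinant GST-Rb substrate was phosphorylated for 30 min at 37° C by baculovirus-expressed His6-GSK-3β (200 ng/ml) at 20 μM ATP, 10 mM MgCl2, 2.5% DMSO. Europium time-resolved fluorescence of anti-phospho-Ser780 Rb signal gave inhibition, fitted to IC50.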

Consider 20 molecules from patent publication US8354414B2, “Substituted bicyclic pyrimidines” (Cephalon, Inc, priority 2006, dated 2013).

Structures are written as SMILES. Like-named read-outs stand apart in the source and are kept apart here.

T1 sequence (Q00535 whole entry): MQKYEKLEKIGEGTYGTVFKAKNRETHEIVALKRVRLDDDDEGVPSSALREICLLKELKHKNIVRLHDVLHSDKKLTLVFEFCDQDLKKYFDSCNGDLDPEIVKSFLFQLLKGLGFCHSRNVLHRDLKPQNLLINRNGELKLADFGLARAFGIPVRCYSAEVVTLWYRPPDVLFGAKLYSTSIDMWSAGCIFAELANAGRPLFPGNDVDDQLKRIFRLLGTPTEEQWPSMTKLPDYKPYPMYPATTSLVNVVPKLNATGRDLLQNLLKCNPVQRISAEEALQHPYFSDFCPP
T1 sequence (Q15078 108-307 partner limits assumed): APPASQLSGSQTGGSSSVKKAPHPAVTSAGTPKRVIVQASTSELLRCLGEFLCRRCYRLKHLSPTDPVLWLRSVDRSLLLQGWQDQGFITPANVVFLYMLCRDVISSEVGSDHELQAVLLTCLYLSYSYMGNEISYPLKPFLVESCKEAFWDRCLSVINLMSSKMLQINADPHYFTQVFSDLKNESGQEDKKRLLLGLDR
T2 sequence (P49841 2-419): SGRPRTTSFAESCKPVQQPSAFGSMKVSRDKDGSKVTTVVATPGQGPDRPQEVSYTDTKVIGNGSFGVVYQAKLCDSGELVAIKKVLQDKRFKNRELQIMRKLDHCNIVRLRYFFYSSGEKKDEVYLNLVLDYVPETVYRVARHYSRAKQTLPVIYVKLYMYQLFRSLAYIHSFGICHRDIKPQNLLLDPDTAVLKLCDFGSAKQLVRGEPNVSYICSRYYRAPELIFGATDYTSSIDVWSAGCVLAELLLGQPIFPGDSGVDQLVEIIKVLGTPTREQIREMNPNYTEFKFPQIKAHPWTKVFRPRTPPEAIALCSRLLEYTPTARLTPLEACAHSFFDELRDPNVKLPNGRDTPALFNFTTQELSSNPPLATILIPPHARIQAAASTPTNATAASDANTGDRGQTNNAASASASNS

Take `O=C1Nc2ccc(Br)cc2C1c1ncnc2c1cnn2C1CCCCC1` (stereo not drawn) [Example 75, 5-Bromo-3-(1-Cyclohexyl-1H-pyrazolo[3,4-d]pyrimidin-4-yl)-1,3-dihydro-indol-2-one]: the melting point lay within 305 to 308 °C. Besides, the IC50 in series [1] (class symbols) was more than 10000 nM. The concentration for half-maximal inhibition (IC50) in series [2] (class symbols) was more than 10000 nM.
Molecule `O=C1Nc2ccc(C(F)(F)F)cc2C1c1nc(NCCCN2CCOCC2)nc2nn(C3CCCC3)cc12` (stereo not drawn) [Example 162, 3-[2-cyclopentyl-6-(3-morpholin-4-yl-propylamino)-2H-pyrazolo [3,4-d]pyrimidin-4-yl]-5-trifluoromethyl-1,3-dihydro-indol-2-one] returned a melting point of 288 to 291 °C. The half-inhibitory concentration (IC50) in series [1] (numeric bounds) was more than 1000 nM. The IC50 in series [2] (class symbols) was less than 300 nM.
With `Cn1cc2c(C3C(=O)Nc4ccc(Br)cc43)ncnc2n1` (stereo not drawn) [Example 82, 5-Bromo-3-(2-methyl-2H-pyrazolo[3,4-d]pyrimidin-4-yl)-1,3-dihydro-indol-2-one], the melting point is 360 to 365 °C. Moreover, the IC50 in series [1] (class symbols) was less than 300 nM. Besides, the 50% inhibitory concentration (IC50) in series [2] (class symbols) fell in the range of 300 to 3000 nM.
The like results for `O=C1Nc2ccc(Cl)cc2C1c1ncnc2c1cnn2C1CCCCC1` (stereo not drawn) [Example 74, 5-Chloro-3-(1-Cyclohexyl-1H-pyrazolo[3,4-d]pyrimidin-4-yl)-1,3-dihydro-indol-2-one] were, in that order, 300 to 305 °C, more than 10000 nM and more than 10000 nM.
The like results for `O=C1Nc2ccc(F)cc2C1c1ncnc2c1cnn2C1CCCCC1` (stereo not drawn) [Example 72, 3-(1-Cyclohexyl-1H-pyrazolo[3,4-d]pyrimidin-4-yl)-5-fluoro-1,3-dihydro-indol-2-one] were, in that order, 282 to 286 °C, more than 10000 nM and more than 10000 nM.
`CC(C)CNc1nc(C2C(=O)Nc3ccc(C(F)(F)F)cc32)c2cn(C3CCCC3)nc2n1` (stereo not drawn) [Example 249, 3-(2-Cyclopentyl-6-isobutylamino-2H-pyrazolo[3,4-d]pyrimidin-4-yl)-5-trifluoromethyl-1,3-dihydro-indol-2-one] yielded a melting point of 282 to 285 °C. The IC50 in series [1] (class symbols) is more than 10000 nM. Further, in series [2] (@10 μM), the “GSK3β % @10 μM” value came out at 52% @10 μM.
As to `CCCn1cc2c(C3C(=O)Nc4ccc(Br)cc43)nc(NC[C@H](C)O)nc2n1` (stereo partly drawn) [Example 194, 5-Bromo-3-[6-((S)-2-hydroxy-propylamino)-2-propyl-2H-pyrazolo[3,4-d]pyrimidin-4-yl]-1,3-dihydro-indol-2-one], the melting point lay within 322 to 326 °C. This molecule gave a concentration for half-maximal inhibition (IC50) in series [1] (class symbols) of less than 300 nM. Besides, the IC50 in series [2] (class symbols) is less than 300 nM.
For `CCCn1cc2c(C3C(=O)Nc4ccc(Br)cc43)nc(NCCCN(C)C)nc2n1` (stereo not drawn) [Example 198, 5-Bromo-3-[6-(3-dimethylamino-propylamino)-2-propyl-2H-pyrazolo [3,4-d]pyrimidin-4-yl]-1,3-dihydro-indol-2-one], the melting point lay within 286 to 290 °C. This molecule yielded a half-inhibitory concentration (IC50) in series [1] (class symbols) of less than 300 nM. The 50% inhibitory concentration (IC50) in series [2] (class symbols) is less than 300 nM.
Molecule `C[C@H](O)CNc1nc(C2C(=O)Nc3ccc(Cl)cc32)c2cn(C3CCCC3)nc2n1` (stereo partly drawn) [Example 374] came in with a melting point of more than 300 °C. This molecule yielded an inhibition at 10 µM in series [1] of 56%. Also, in series [2] (class symbols), the 50% inhibitory concentration (IC50) is less than 300 nM.
In the case of `CC(C)n1cc2c(C3C(=O)Nc4ccc(C#N)cc43)ncnc2n1` (stereo not drawn) [Example 382, 3-(2-Isopropyl-2H-pyrazolo[3,4-d]pyrimidin-4-yl)-2-oxo-2,3-dihydro-1H-indole-5-carbonitrile], the melting point is more than 300 °C. In series [1] (class symbols), this molecule gave a concentration for half-maximal inhibition (IC50) of less than 300 nM. In addition, the IC50 in series [2] (class symbols) was 300 to 3000 nM.
The corresponding values for `CC(C)CNc1nc(C2C(=O)Nc3ccc(Cl)cc32)c2cn(C3CCCC3)nc2n1` (stereo not drawn) [Example 280, 5-Chloro-3-(2-cyclopentyl-6-isobutylamino-2H-pyrazolo[3,4-d]pyrimidin-4-yl)-1,3-dihydro-indol-2-one] are 282 to 286 °C, more than 10000 nM and less than 300 nM.
The corresponding values for `CCCCCn1cc2c(C3C(=O)Nc4ccc(C(F)(F)F)cc43)nc(NCCCN)nc2n1` (stereo not drawn) [Example 289, 3-[6-(3-Amino-propylamino)-2-pentyl-2H-pyrazolo[3,4-d]pyrimidin-4-yl]-5-trifluoromethyl-1,3-dihydro-indol-2-one] are 235 °C (dec.), less than 300 nM and less than 300 nM.
Regarding `COCCNc1nc(C2C(=O)Nc3ccc(Br)cc32)c2cn(CCOC)nc2n1` (stereo not drawn) [Example 235, 5-Bromo-3-[2-(2-methoxy-ethyl)-6-(2-methoxy-ethylamino)-2H-pyrazolo [3,4-d]pyrimidin-4-yl]-1,3-dihydro-indol-2-one], the melting point is more than 300 °C. Besides, the 50% inhibitory concentration (IC50) in series [1] (class symbols) was less than 300 nM. The half-maximal inhibitory concentration (IC50) in series [2] (class symbols) is less than 300 nM.
In turn, `C=CCNc1nc(C2C(=O)Nc3ccccc32)c2cn(C3CCCC3)nc2n1` (stereo not drawn) [Example 243, 3-(6-Allylamino-2-cyclopentyl-2H-pyrazolo[3,4-d]pyrimidin-4-yl)-1,3-dihydro-indol-2-one] came in with a melting point of more than 300 °C. In addition, the inhibition at 10 µM in series [1] was 63%. In addition, the IC50 in series [2] (numeric bounds) is more than 1000 nM.
The molecule `O=C1Nc2c(F)cc(F)cc2C1c1ncnc2c1cnn2C1CCCC1` (stereo not drawn) [Example 61, 3-(1-cyclopentyl-1H-pyrazolo[3,4-d]pyrimidin-4-yl)-5,7-difluoro-1,3-dihydro-indol-2-one] had a melting point of more than 300 °C. Further, in series [1] (class symbols), the IC50 is more than 10000 nM. Moreover, the half-inhibitory concentration (IC50) in series [2] (class symbols) is more than 10000 nM.
On to `O=C1Nc2ccc(F)c(F)c2C1c1ncnc2nn(C3CCCC3)cc12` (stereo not drawn) [Example 42, 3-(2-Cyclopentyl-2H-pyrazolo[3,4-d]pyrimidin-4-yl)-4,5-difluoro-1,3-dihydro-indol-2-one], for which the melting point lay in the range of 280 to 284 °C. In series [1] (class symbols), the concentration for half-maximal inhibition (IC50) lay in the range of 300 to 3000 nM. Further, the concentration for half-maximal inhibition (IC50) in series [2] (class symbols) is 300 to 3000 nM.
`CCCCCn1cc2c(C3C(=O)Nc4ccc(C(F)(F)F)cc43)nc(NCCN)nc2n1` (stereo not drawn) [Example 288, 3-[6-(2-Amino-ethylamino)-2-pentyl-2H-pyrazolo [3,4-d]pyrimidin-4-yl]-5-trifluoromethyl-1,3-dihydro-indol-2-one]: the melting point is 192 °C (dec.). Further, the IC50 in series [1] (class symbols) lay within 300 to 3000 nM. For the same molecule, the IC50 in series [2] (class symbols) is less than 300 nM.
The like results for `CCCn1cc2c(C3C(=O)Nc4ccc(Cl)cc43)ncnc2n1` (stereo not drawn) [Example 98, 5-Chloro-3-(2-propyl-2H-pyrazolo[3,4-d]pyrimidin-4-yl)-1,3-dihydro-indol-2-one] were, in that order, 302 to 306 °C, less than 300 nM and less than 300 nM.
The corresponding values for `CC(C)Cn1cc2c(C3C(=O)Nc4ccc(Br)cc43)nc(NCCCN3CCOCC3)nc2n1` (stereo not drawn) [Example 265, 5-Bromo-3-[2-isobutyl-6-(3-morpholin-4-yl-propylamino)-2H-pyrazolo [3,4-d]pyrimidin-4-yl]-1,3-dihydro-indol-2-one] are 271 to 274 °C, less than 300 nM and less than 300 nM.
The like results for `CC(C)Nc1nc(C2C(=O)Nc3ccc(C(F)(F)F)cc32)c2cn(C3CCCC3)nc2n1` (stereo not drawn) [Example 250, 3-(2-Cyclopentyl-6-isopropylamino-2H-pyrazolo[3,4-d]pyrimidin-4-yl)-5-trifluoromethyl-1,3-dihydro-indol-2-one] were, in that order, 299 to 301 °C, more than 10000 nM and less than 300 nM.
